From patent US9758561B2 (priority 2014, dated 2017) come the findings set out here.

Molecules are shown by their SMILES. Converted amounts (≈) assume the structure as drawn. Where two headings read alike, the source gives them in different places.

Data set [1] is described as follows: Solubility testing in buffer (HPLC-UV). Type of data set: physicochemical.
A further data set has as its target T1, human GLP-1 receptor (Homo sapiens, UniProt P43220).
T1 construct: expressed in transfected cells; host or cells: HEK-293
Put plainly: cAMP response of HEK-293 cells stably expressing human GLP-1 receptor (HTRF). It is filed as cell-based. The settings on record: Table 6; read-out: EC50 hGLP-1R. The essentials: (§1)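 HEK-293 cells stably expressing the receptor were taken up in HBSS/20 mM HEPES/0.1% BSA with 2 mM IBMX at 400000 cells/ml. They were exposed to increasing concentrations of peptide for 30 minutes at room temperature, and formed cAMP was measured by HTRF.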

The test system of data set [2] is female diet-induced obese (DIO) C57BL/6 mice. The experiment in a line: Chronic effect on body weight and body fat in female DIO C57BL/6 mice. The following applies: 50 μg/kg bid s.c., 4 weeks. It is filed as in vivo. On the procedure:
(§2) C57BL/6 Harlan mice are housed in groups in a specific pathogen-free barrier facility on a 12 h light/dark cycle with free access to water and standard or high-fat diet. After prefeeding on high-fat diet, mice are stratified to treatment groups (n=8), so that each group has similar mean body weight. An age-matched group with ad-libitum access to standard chow is included as standard control group. Before the experiment, mice are subcutaneously (s.c.) injected with vehicle solution and weighed for 3 days to acclimate them to the procedures.
Body weight is recorded daily. Two days before start of treatment and on day 26, total fat mass is measured by nuclear magnetic resonance (NMR).
Statistical analyses are performed with Everstat 6.0 by repeated measures two-way ANOVA and Dunnetts post-hoc analyses (glucose profile) and 1-way-ANOVA, followed by Dunnetts post-hoc test (body weight, body fat). Differences versus vehicle-treated DIO control mice are considered statistically significant at the p<0.05 level.
Female obese C57BL/6 mice were treated for 4 weeks twice daily subcutaneously with 50 μg/kg SEQ ID NO: 6, 50 μg/kg SEQ ID NO: 7 or vehicle. Body weight was recorded daily, and body fat content was determined before the start and after 4 weeks of treatment. […] These changes resulted from a decrease in body fat, as shown by the absolute changes in body fat content (Table 10, FIG. 3).
Female obese C57BL/6 mice were treated for 4 weeks twice daily subcutaneously with 50 μg/kg SEQ ID NO: 9 or vehicle. Body weight was recorded daily, and body fat content was determined before the start and after 4 weeks of treatment.

Data set [3] has the same test system. The experiment in a line: Acute effect on blood glucose in fed female DIO C57BL/6 mice. The following applies: 50 μg/kg s.c., profile over 24 h. Type of data set: in vivo. On the procedure: as §2
The volume of administration is 5 mL/kg. The animals have access to water and their corresponding diet during the experiment. Blood glucose levels are measured at t=0 h, t=1 h, t=2 h, t=3 h, t=4 h, t=6 h and t=24 h (method: Accu-Check glucometer). Blood sampling is performed by tail incision without anaesthesia.
Statistical analyses are performed with Everstat 6.0 by repeated measures two-way ANOVA and Dunnetts post-hoc analyses (glucose profile) and 1-way-ANOVA, followed by Dunnetts post-hoc test (body weight, body fat). Differences versus vehicle-treated DIO control mice are considered statistically significant at the p<0.05 level. […]

The target of a further data set is T2, human GIP receptor (Homo sapiens, UniProt P48546).
T2 construct: expressed in transfected cells; host or cells: HEK-293
T2 sequence (P48546 22-466): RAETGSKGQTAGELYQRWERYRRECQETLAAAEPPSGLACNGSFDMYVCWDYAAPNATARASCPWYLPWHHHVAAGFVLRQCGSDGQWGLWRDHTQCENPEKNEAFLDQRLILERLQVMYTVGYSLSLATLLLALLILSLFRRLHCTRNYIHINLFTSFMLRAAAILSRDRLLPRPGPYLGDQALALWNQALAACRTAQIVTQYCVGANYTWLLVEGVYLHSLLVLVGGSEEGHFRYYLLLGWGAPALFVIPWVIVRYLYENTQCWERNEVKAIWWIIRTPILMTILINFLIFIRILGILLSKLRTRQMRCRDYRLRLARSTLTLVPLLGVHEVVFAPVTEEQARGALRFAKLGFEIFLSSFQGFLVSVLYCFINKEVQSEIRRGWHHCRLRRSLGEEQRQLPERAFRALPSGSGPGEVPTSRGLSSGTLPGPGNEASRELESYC
The experiment in a line: cAMP response of HEK-293 cells stably expressing human GIP receptor (HTRF). Type of data set: cell-based. The following applies: Table 6; read-out: EC50 hGIP-R. In a few lines:
as §1

Data set [4] is described as follows: Stability testing in solution, 7 days at 40° C. (HPLC-UV). Type of data set: physicochemical. On the procedure: After that time course, the sample was centrifuged for 20 min at 4500 rpm and 0.2 μL of the supernatant were analysed with HPLC-UV.
For determination of the amount of the remaining peptide, the peak areas of the target compound at t0 and t7 were compared, resulting in “% remaining peptide”, following the equation % remaining peptide=[(peak area peptide t7)×100]/peak area peptide t0.
The stability is expressed as “% remaining peptide”.

The next data set concerns the target T3, human glucagon receptor (Homo sapiens, UniProt P47871).
T3 construct: expressed in transfected cells; host or cells: HEK-293
Put plainly: cAMP response of HEK-293 cells stably expressing human glucagon receptor (HTRF). It is filed as cell-based. The settings on record: Table 6; read-out: EC50 hGlucagon-R. The essentials: as §1
(In general: In TR-FRET formats the signal depends on donor and acceptor labels being close together.)

Data set [5] can be described thus: Pharmacokinetic testing in mice, 1 mg/kg s.c. (LC/MS). It is filed as in vivo. The following applies: mouse, plasma, sc. Here is the method:
Mice were dosed 1 mg/kg subcutaneously (s.c.). The mice were sacrificed and blood samples were collected after 0.25, 0.5, 1, 2, 4, 8, 16 and 24 hours post application. Plasma samples were analyzed after protein precipitation via liquid chromatography mass spectrometry (LC/MS). PK parameters and half-life were calculated using WinonLin Version 5.2.1 (non-compartment model).

The term solubility denotes the dissolved amount per volume that the medium holds. As usually defined, the EC50 is the concentration giving half of the maximal effect. Broadly, the Cmax is the maximum level reached in the sampled fluid or tissue. A word on the half-life: it is the time needed for the level to fall by half in the phase considered.

T3 sequence (P47871 26-477): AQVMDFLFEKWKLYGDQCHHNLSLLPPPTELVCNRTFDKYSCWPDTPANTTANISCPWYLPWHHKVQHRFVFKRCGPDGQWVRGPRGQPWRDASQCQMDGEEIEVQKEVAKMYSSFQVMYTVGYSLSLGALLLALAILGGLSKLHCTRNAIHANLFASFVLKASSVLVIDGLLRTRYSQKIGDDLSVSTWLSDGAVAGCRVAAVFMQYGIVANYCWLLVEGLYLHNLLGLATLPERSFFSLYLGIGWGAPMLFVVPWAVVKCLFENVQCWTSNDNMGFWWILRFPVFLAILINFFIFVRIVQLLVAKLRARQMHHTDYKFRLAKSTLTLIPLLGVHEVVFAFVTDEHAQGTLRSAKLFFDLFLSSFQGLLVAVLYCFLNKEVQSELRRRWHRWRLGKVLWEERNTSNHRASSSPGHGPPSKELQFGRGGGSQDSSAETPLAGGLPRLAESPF
T1 sequence (P43220 24-463): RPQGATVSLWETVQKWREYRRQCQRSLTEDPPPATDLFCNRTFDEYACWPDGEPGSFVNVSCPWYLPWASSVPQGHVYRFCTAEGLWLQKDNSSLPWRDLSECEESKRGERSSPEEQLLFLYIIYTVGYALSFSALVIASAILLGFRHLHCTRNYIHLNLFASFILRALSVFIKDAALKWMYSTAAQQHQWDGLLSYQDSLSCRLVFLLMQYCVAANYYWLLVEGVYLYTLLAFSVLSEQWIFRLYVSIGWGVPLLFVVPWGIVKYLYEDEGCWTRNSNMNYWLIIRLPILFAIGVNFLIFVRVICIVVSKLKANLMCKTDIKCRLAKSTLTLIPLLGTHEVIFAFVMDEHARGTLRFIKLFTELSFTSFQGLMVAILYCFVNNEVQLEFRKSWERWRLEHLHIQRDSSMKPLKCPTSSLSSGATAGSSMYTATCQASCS

With `CCCCCCCCCCCCCCCC(=O)N[C@@H](CCC(=O)N[C@@H](CCC(=O)NCCCC[C@H](NC(=O)[C@H](CCC(N)=O)NC(=O)[C@H](CCCCN)NC(=O)[C@H](CO)NC(=O)[C@H](CC(C)C)NC(=O)[C@H](CC(=O)O)NC(=O)[C@H](CO)NC(=O)[C@@H](NC(=O)[C@H](Cc1ccccc1)NC(=O)[C@@H](NC(=O)CNC(=O)[C@H](CCC(N)=O)NC(=O)[C@@H](CO)NC(=O)[C@@H](N)Cc1c[nH]cn1)[C@@H](C)O)[C@@H](C)O)C(=O)N[C@@H](CC(=O)O)C(=O)N[C@@H](CCC(=O)O)C(=O)N[C@@H](CCC(=O)O)C(=O)N[C@@H](C)C(=O)N[C@@H](C)C(=O)N[C@@H](CCCNC(=N)N)C(=O)N[C@@H](CC(C)C)C(=O)N[C@@H](Cc1ccccc1)C(=O)N[C@H](C(=O)N[C@@H](CCC(=O)O)C(=O)N[C@@H](Cc1c[nH]c2ccccc12)C(=O)N[C@@H](CC(C)C)C(=O)NC(C)(C)C(=O)N[C@@H](C)C(=O)NCC(=O)NCC(=O)N1CCC[C@H]1C(=O)N[C@@H](CO)C(=O)N[C@@H](CO)C(=O)NCC(=O)N[C@@H](C)C(=O)N1CCC[C@H]1C(=O)N1CCC[C@H]1C(=O)N1CCC[C@H]1C(=O)N[C@@H](CO)C(N)=O)[C@@H](C)CC)C(=O)O)C(=O)O` [SEQ ID NO: 9, H-dSer-Q-G-T-F-T-S-D-L-S-K-Q-K(γE-γE-x53)-D-E-E-A-A-R-L-F-I-E-W-L-Aib-A-G-G-P-S-S-G-A-P-P-P-S-NH2], the solubility at 2 h in data set [1] (pH 4.5, target concentration 10 mg/ml, read-out: solubility pH 4.5) is 2200 µg/mL (≈ 480 µM); in data set [1] (pH 7.4, target concentration 10 mg/ml, read-out: solubility pH 7.4) it was greater than 8000 µg/mL. The figures for the EC50 on human GLP-1 receptor, on human GIP receptor and at human glucagon receptor were 1.8 pM, 3600 pM and 11.8 pM, respectively. Besides, the “daily body weight compared to vehicle DIO control mice” value in data set [2] is given as “decrease in daily body weight”. Further, the Body fat change in data set [2] (Table 11 (Example 8), NMR, mean ± SEM) was -5.65 ± 0.9 g. In data set [2] (Table 11 (Example 8), mean ± SEM), this molecule displayed an Overall weight change of -6.56 ± 1.0 g. Further, the “blood glucose compared to DIO control” value in data set [3] is recorded as “decrease in blood glucose”. Besides, in data set [4] (pH 4.5, 7 days at 40° C. in solution), the “Stability pH 4.5” value turned out to be 77.0 % remaining peptide. Besides, the “Stability pH 7.4” value in data set [4] (pH 7.4, 7 days at 40° C. in solution) is 93.0 % remaining peptide. The molecule also yielded a maximum concentration (Cmax) in data set [5] of 6560 ng/mL. The half-life in data set [5] was 3.8 h.
